The source of these data is patent publication US7829568B2, “Substituted 5,6,7,8-tetrahydroimidazo[1,2-a]pyridin-2-ylamine compounds and their use for producing drugs” (Gruenenthal GmbH, priority 2005, dated 2010).

This experiment deals with T1, human μ-opioid receptor (Homo sapiens, UniProt P35372).
T1 construct: purchased NEN, Zaventem, Belgium RB-HOM; host or cells: CHO-K1 cells (membrane preparation)
Description: Affinity to the human μ-opioid receptor ([3H]-naloxone displacement, SPA). Type of experiment: binding. The settings on record: compound 1 μmol/l, 1 nmol/l [3H]-naloxone, CHO-K1 membrane preparation; for inhibition at 1 µM: read-out: μ-opioid receptor (man) (% inhibition). How it is done:
III. Method for Determining the Affinity to the Human μ-Opioid Receptor
The receptor affinity to the human μ-opioid receptor is determined in a homogeneous batch in microtitre plates. In this case, dilution series of the respective substituted 5,6,7,8-tetrahydro-imidazo[1,2-a]pyridin-2-ylamine compound of the general formula I to be tested are incubated with a receptor membrane preparation (15-40 μg of protein per 250 μl of the incubation batch) of CHO-K1 cells which express the human μ-opioid receptor (μ-opiate receptor) (RB-HOM receptor membrane preparation from NEN, Zaventem, Belgium) in the presence of 1 nmol/l of the radioactive ligands [^3H]-naloxone (NET719, NEN, Zaventem, Belgium) and also 1 mg of WGA SPA beads (wheat germ agglutinin SPA beads from Amersham Pharmacia, Freiburg, Germany) in a total volume of 250 μl at room temperature for 90 minutes. 50 mmol/l tris-HCl are used as an incubation buffer with 0.05% by weight of sodium azide and 0.06% by weight of bovine serum albumin. 25 μmol/l naloxone are also added to determine the non-specific bond. At the end of the 90 minute incubation period, the microtitre plates are centrifuged off for 20 minutes at 1000 g and the radioactivity is measured with a β-counter (Microbeta-Trilux, PerkinElmer Wallac, Freiburg, Germany. The percentage of displacement of the radioactive ligand from its bond to the human μ-opiate receptor at a concentration of 1 μmol/l of the compound to be tested is determined and indicated as a % inhibition of the specific bond.

T1 sequence (P35372 whole entry): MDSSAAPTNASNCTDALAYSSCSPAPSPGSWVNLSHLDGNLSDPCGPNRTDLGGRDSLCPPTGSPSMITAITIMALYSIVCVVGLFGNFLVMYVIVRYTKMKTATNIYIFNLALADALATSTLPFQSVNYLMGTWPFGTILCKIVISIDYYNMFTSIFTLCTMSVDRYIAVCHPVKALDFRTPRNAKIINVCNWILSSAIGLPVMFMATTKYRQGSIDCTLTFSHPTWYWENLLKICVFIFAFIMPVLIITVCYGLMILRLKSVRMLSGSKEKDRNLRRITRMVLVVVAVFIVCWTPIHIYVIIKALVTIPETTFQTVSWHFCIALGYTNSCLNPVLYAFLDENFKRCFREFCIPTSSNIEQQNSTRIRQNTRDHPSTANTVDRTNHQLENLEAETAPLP

Consider `CN(C(=O)c1cccc2ccccc12)c1nc2n(c1C(=O)NCc1cc(C(F)(F)F)cc(C(F)(F)F)c1)CCCC2` [Example 15, 2-[Methyl-(naphthalene-1-carbonyl)-amino]-5,6,7,8-tetrahydro-imidazo[1,2-a]pyridine-3-carboxylic acid 3,5-bis-trifluoromethyl-benzylamide], for which the inhibition – broadly, the change of the read-out against control, counted positive when it falls – at 1 µM came to 35%. For the molecule `CCCCN(C(=O)c1cccc(Cl)c1)c1nc2n(c1C(=O)NCCSCc1c(Cl)cccc1Cl)CCCC2` [Example 95, 2-[butyl-(3-chloro-benzoyl)-amino]-5,6,7,8-tetrahydro-imidazo[1,2-a]pyridine-3-carboxylic acid [2-(2,6-dichlor-benzylsulphanyl)-ethyl]-amide], the “μ-opioid receptor (man) (% inhibition)” value came out at 53%. Take `CN(C(=O)c1cccc(Cl)c1)c1nc2n(c1C(=O)N1CCN(CCc3ccccc3)CC1)CCCC2` [Example 106, 3-chloro-N-methyl-N-[3-(4-phenethyl-piperazine-1-carbonyl)-5,6,7,8-tetrahydro-imidazo[1,2-a]pyridin-2-yl]-benzamide]: the inhibition at 1 µM is 30%. On to `CC(CCc1ccccc1)NC(=O)c1c(N(C)C(=O)c2cccc3ccccc23)nc2n1CCCC2` (centres unmarked) [Example 112, 2-[methyl-(naphthalene-1-carbonyl)-amino]-5,6,7,8-tetrahydro-imidazo[1,2-a]pyridine-3-carboxylic acid (1-methyl-3-phenyl-propyl)-amide], for which the inhibition at 1 µM worked out at 51%. Turning to `CCCCN(C(=O)c1ccc(F)c(F)c1)c1nc2n(c1C(=O)NCCC(c1ccccc1)c1ccccc1)CCCC2` [Example 180, 2-[butyl-(3,4-difluoro-benzoyl)-amino]-5,6,7,8-tetrahydro-imidazo[1,2-a]pyridine-3-carboxylic acid (3,3-diphenyl-propyl)-amide], the inhibition at 1 µM was 47%.

In the case of `CCCCN(C(=O)c1cccc(Cl)c1)c1nc2n(c1C(=O)Nc1ccc3c(c1)OCCO3)CCCC2` [Example 181, 2-[butyl-(3-chloro-benzoyl)-amino]-5,6,7,8-tetrahydro-imidazo[1,2-a]pyridine-3-carboxylic acid (2,3-dihydro-benzo[1,4]dioxin-6-yl)-amide], the inhibition at 1 µM turned out to be 58%. In the case of `CN(C(=O)Cc1ccccc1)c1nc2n(c1C(=O)N1CCN(c3ccccc3)CC1)CCCC2` [Example 186, N-methyl-2-phenyl-N-[3-(4-phenyl-piperazine-1-carbonyl)-5,6,7,8-tetrahydro-imidazo[1,2-a]pyridin-2-yl]-acetamide], the inhibition at 1 µM came out at 48%. Take `Cc1cc(Cl)cc(Cl)c1CNC(=O)c1c(N(C)C(=O)c2ccccc2)nc2n1CCCC2` [Example 188, 2-(benzoyl-methyl-amino)-5,6,7,8-tetrahydro-imidazo[1,2-a]pyridine-3-carboxylic acid 2,4-dichloro-6-methyl-benzylamide]: the inhibition at 1 µM amounted to 59%.
